From patent publication US20050171203A1, “Pregabalin composition” (Pfizer Inc., priority 2003, published 2005)

Experiments:
[1] = storage at 5° C.
[2] = tested on: bacteria; yeasts and molds; E. coli; experiment: antimicrobial efficacy testing (microbial limit test, European Pharmacopoeia 5th ed.); conditions: glycerol as preservative
[3] = observations on preserved pregabalin compositions (Remarks of Table 1: pH, particles, color, mold); type: physicochemical; conditions: sorbic acid used with pregabalin
Text: Other common preservatives, such as ethanol, are unsuitable for use in pediatric formulations.
In TABLE 1, the annotations “Meets Ph. Eur.” and “Fails Ph. Eur.” refer to whether the test results meet or fail the microbial limit test as defined in the current edition of European Pharmacopoeia (5th ed., 2004): 1000 bacteria per g (max); 100 yeasts and molds per g (max); and free of E. coli.

| appearance of the solution [3] | shift in pH [3] | SMILES | behaviour in solution under storage [1] | compliance with requirements of European Pharmacopoeia (5th ed., 2004) [2] |
| --- | --- | --- | --- | --- |
|  |  | OC[C@@H](O)[C@H](O)[C@@H](O)CO [xylitol] | precipitated out of solution |  |
|  |  | O=C1NS(=O)(=O)c2ccccc21.[Na] [sodium saccharin] | remained in solution |  |
|  |  | OCC(O)CO [glycerol] | precipitated out of solution | does not comply |
| discoloration of the solution | 5.0 | C/C=C/C=C/C(=O)O [sorbic acid] |  |  |
